Laboratory results as given in patent US10093675B2, “6,8-disubstituted-9-(heterocyclyl)purines, compositions containing these derivatives and their use in cosmetic and medicinal applications” (USTAV EXPERIMENTALNI BOTANIKY AV CR, V.V.I., priority 2014, dated 2018).

Experiments:
[1] = system: excised wheat leaf tips (Triticum aestivum cv. Hereward); assay: Senescence inhibition on winter wheat leaf segments (retention of chlorophyll); assay type: in vivo; conditions: 10^−4 mol/L; 96 hours in the dark; activity of kinetin set at 100%
Procedure: Seeds of winter wheat, Triticum aestivum cv. Hereward, were washed under running water for 24 hours and then sown on vermiculite soaked with Knop's solution. They were placed in the grown chamber at 25° C. with a 16/8 hours light period at […]. After 7 days, the first leaf was fully developed and the second leaf had started to grow. A tip section of the first leaf, approximately 35 mm long, was removed from 5 seedlings and trimmed slightly to a combined weight of 100 mg. The basal ends of the five leaf tips were placed in the wells of a microtiter polystyrene plate containing […] of a cytokinin solution each. The entire plate was inserted into a plastic box lined with paper tissues soaked in distilled water to prevent leaf sections from drying out. After 96 hours incubation in the dark at 25° C., the leaves were removed and chlorophyll extracted by heating at 80 C for 10 min in 5 ml of 80% ethanol (v/v). The sample volume was then restored to 5 ml by the addition of 80% ethanol (v/v). The absorbance of the extract was recorded at 665 nm. In addition, chlorophyll extracts from fresh leaves and leaf tips incubated in deionized water were measured. From the obtained data, the concentration with highest activity was selected for each compound tested. Relative activity of the compound at this concentration was calculated (see Table 6 below). The activity obtained for 10^−4 M kinetin (Kin) was set as 100%. The values shown are means of five replicates and the whole experiment was repeated twice.
The compounds to be tested were dissolved in dimethylsulfoxide (DMSO) and the solution brought up to 10^−3 M with distilled water. […] As summarized in Table 6 below, the presence of C-8 substitutent was beneficial and led to increase of antisenescent properties.

[2] = system: Salmonella typhimurium histidien auxotrophs TA98 and TA100; assay: Ames test; assay type: cell-based; conditions: 2.5 to 5000 μg/plate; presence and absence of Aroclor-induced rat liver S9
Procedure: A number of tests related to the safety of have been carried out using conventionally accepted protocols and procedures. The results of these studies are summarized herein. Tests were carried out using DMSO as solvent and dose levels of compound 21, 24, 26, 27, 39, 41, 45, 48, 50, 52, 53, 54, 55, 56, 63, 64, 66, 67, 68, 69, 70, 71, 72, 74, 76, 124, 125, 126, 127, 128, 129, 130, 145, 146, 147, 149, 150, 151, 208, 216, 218 a 243 at 2.5, 5.0, 15, 50, 500, 1500, and 5000 μg/plate based upon standard protocol and procedures (Ames et al., Mutation Research, 31, 347-364 (1975); Maron et al., Mutation Research, 113, 173-215 (1983)).

[3] = system: human diploid fibroblasts (HDF cells; HDF25, HDF45, HDF80); assay: Inhibition of human cell aging: senescent cells by beta-galactosidase staining; assay type: cell-based; conditions: for SENESCENT CELLS (%) HDF25: human diploid fibroblasts passage 25, beta-galactosidase staining; for SENESCENT CELLS (%) HDF45: human diploid fibroblasts passage 45, beta-galactosidase staining; for SENESCENT CELLS (%) HDF80: human diploid fibroblasts passage 80, beta-galactosidase staining
Procedure: In this example, human diploid fibroblasts (HDF cells of various passage levels: passage 25—designated HDF25; passage 45—designated HDF45; passage 80—designated HDF80) were stained for beta-galactosidase activity. The medium used for the cell cultivation was removed the cells were washed twice in […], and fixed in 2-3 ml of fixing solution comprised of a 2% formaldehyde and 0.2% glutaraldehyde in PBS. The cells were incubated at room temperature for 5 minutes, and then washed twice with PBS. The cells were subsequently incubated at 37° C. […] In this experiment, senescent cells, but no other cells were stained blue due to the action of beta-galactosidase on the substrate.

[4] = system: cytokinin-dependent tobacco callus Nicotiana tabacum L. cv. Wisconsin 38; assay: Plant cell division: growth of cytokinin-dependent tobacco callus; assay type: cell-based; conditions: for Activity (%); (s.d.): relative activity at concentration with highest activity, 10^−6 M kinetin set at 100%; for Concentration with highest activity (mol/l): tobacco callus fresh weight increase after four weeks, tested 10^−8 M to 10^−4 M
Procedure: Cytokinin-dependent tobacco callus Nicotiana tabacum L. cv. Wisconsin 38 was maintained at 25° C. in darkness on modified MS medium, containing 4 μmol/l nicotinic acid, 2.4 μmol/l pyridoxine hydrochloride, 1.2 μmol/l thiamine, 26.6 μmol/l glycine, 1.37 μmol/l glutamine, 1.8 μmol/l myo-inositol, 30 g/l of sucrose, 8 g/l of agar, 5.37 μmol/l NAA and 0.5 μmol/l BAP. Subcultivation was carried out every three weeks. Fourteen days before the bioassay, the callus tissue was transferred to the media without BAP. Biological activity was determined from the increase in fresh callus weight after four weeks of cultivation. Five replicates were prepared for each cytokinin concentration and the entire test was repeated twice. From the obtained data, the concentration with highest activity was selected for each compound tested. Relative activity at this concentration was calculated (see Table 17 below). The activity obtained for 10^−6 M kinetin (Kin) was set as 100%.
The cytokinins to be tested were dissolved in dimethylsulfoxide (DMSO) and the solution brought up to 10^−3M with distilled water.

SMILES	Activity (%) (s.d.), retention of chlorophyll [1]	mutagenic response [2]	SENESCENT CELLS (%) HDF25 [3] [%]	SENESCENT CELLS (%) HDF45 [3] [%]	SENESCENT CELLS (%) HDF80 [3] [%]	Activity (%); (s.d.) [4]	Concentration with highest activity (mol/l) [4]
Clc1nc2c(NCc3ccco3)ncnc2n1C1CCCO1 (stereo not shown) [Compound 63]	110 (±2) %	no positive mutagenic responses	2	4	19		
Oc1ccc(CNc2ncnc3c2nc(Cl)n3C2CCCO2)cc1O (stereo not shown) [Compound 66]	132 (±5) %	no positive mutagenic responses	2	4	16		
Fc1ccc(CNc2ncnc3c2nc(Cl)n3C2CCCO2)cc1F (stereo not shown) [Compound 67]	128 (±6) %	no positive mutagenic responses	4	6	18		
Oc1cccc(CNc2ncnc3c2nc(Cl)n3C2CCCO2)c1 (stereo not shown) [Compound 70]	126 (±1) %	no positive mutagenic responses	2	5	18	110 (±1) %	10^−6-10^−4 mol/l
Fc1cccc(CNc2ncnc3c2nc(Cl)n3C2CCCO2)c1 (stereo not shown) [Compound 71]	119 (±3) %	no positive mutagenic responses	3	6	19	116 (±2) %	10^−6-10^−4 mol/l
Brc1nc2c(NCc3ccco3)ncnc2n1C1CCCO1 (stereo not shown) [Compound 72]	106 (±2) %	no positive mutagenic responses	3	4	17		
C/C(=C/CNc1ncnc2c1nc(Br)n2C1CCCO1)CO (stereo not shown) [Compound 74]	127 (±5) %	no positive mutagenic responses	3	5	21	122 (±4) %	10^−6-10^−4 mol/l
CC(C)=CCNc1ncnc2c1nc(Br)n2C1CCCO1 (stereo not shown) [Compound 75]						119 (±4) %	10^−6-10^−4 mol/l
Oc1cccc(CNc2ncnc3c2nc(I)n3C2CCCO2)c1 (stereo not shown) [Compound 76]	112 (±3) %	no positive mutagenic responses	3	4	15	114 (±3) %	10^−6-10^−4 mol/l
OCCNc1nc2c(NCc3ccco3)ncnc2n1C1CCCCO1 (stereo not shown) [Compound 243, 6-furfurylamino-8-(2-hydroxyethylamino)-9-(tetrahydropyran-2-yl)-9H-purine]		no positive mutagenic responses					
c1coc(CNc2ncnc3[nH]cnc23)c1 [kinetin, reference compound]	100%		3	5	38		
